The test system of experiment [1] is Penicillinresistant S. aureus (5 strains). Description: MIC, two-fold serial agar dilution, group (G+)-Ib. In kind it is cell-based. The settings on record: Staphylococcus aureus; (G+)-Ib, 5 strains, Mueller-Hinton agar; read-out: Geometric Mean of MIC. Summed up: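 Two-fold serial agar dilution in Mueller-Hinton agar against penicillin-resistant S. aureus (5 strains). Test compound weights adjusted for purity.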
(In general: Agar dilution tests growth on a series of plates holding different concentrations.)

Experiment [2] deals with H. influenzae (7) (ampicillin sensitive). Description: In vitro activity against fastidious bacteria, two-fold serial agar dilution. The experiment is classed as cell-based. Conditions: Haemophilus influenzae, GC agar, 7 strains, read-out: Geometric Mean of MIC. As for the experimental part: The in vitro activity of some of the preferred compounds against 30 strains of fastidious bacteria was determined by the two-fold serial agar dilution method in Gonococcus agar (GC agar), and the results are shown in Table 3.

For experiment [3], the system named is M. morganii (1 strain), Ent. cloacae (2 strains) and Ser. marcescens (2 strains). Nature of the experiment: MIC, two-fold serial agar dilution, group (G-)-II. The experiment is classed as cell-based. The settings on record: (G-)-II, 5 strains, Mueller-Hinton agar; read-out: Geometric Mean of MIC. Summed up: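 Two-fold serial agar dilution in Mueller-Hinton agar; test-compound sample weights adjusted for purity of each compound before MIC determination.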

Experiment [4] relates to P. aeruginosa A21509. Nature of the experiment: Median protective dose in infected mice. The experiment is classed as in vivo. Conditions: Pseudomonas aeruginosa, im, immediately after intraperitoneal challenge, read-out: PD50. As for the experimental part:
(§1) The median protective dose (PD50) of some of the preferred compounds against various microorganisms was determined in mice by intramuscular administration of the test compound immediately after an intraperitoneal bacterial challenge.

Experiment [5] deals with S. pyogenes A20201. Description: Median protective dose in infected mice. In kind it is in vivo. The settings on record: Streptococcus pyogenes, im, immediately after intraperitoneal challenge, read-out: PD50. As for the experimental part:
as §1

Experiment [6] relates to S. aureus Smith. Description: Median protective dose in infected mice. In kind it is in vivo. Conditions: Staphylococcus aureus, im, immediately after intraperitoneal challenge, read-out: PD50. As for the experimental part: as §1
In experiment [7] the test system is P. aeruginosa A9843. Description: Median protective dose in infected mice. In kind it is in vivo. The settings on record: Pseudomonas aeruginosa, im, immediately after intraperitoneal challenge, read-out: PD50. As for the experimental part:
as §1

Experiment [8] relates to E. coli Juhl. Description: Median protective dose in infected mice. The experiment is classed as in vivo. The settings on record: Escherichia coli, im, immediately after intraperitoneal challenge, read-out: PD50. As for the experimental part: as §1
Experiment [9] deals with S. aureus BX-1633. Description: Median protective dose in infected mice. Conditions: Staphylococcus aureus, BX1633, im, immediately after intraperitoneal challenge, read-out: PD50. The experiment is classed as in vivo. As for the experimental part: as §1
Experiment [10] relates to Ps. aeruginosa (6 strains). Description: MIC, two-fold serial agar dilution, group (G-)-III. In kind it is cell-based. The settings on record: Pseudomonas aeruginosa; (G-)-III, 6 strains, Mueller-Hinton agar; read-out: Geometric Mean of MIC. As for the experimental part: In the primary evaluation of the compounds of this invention, the Minimum Inhibitory Concentrations (MIC's) of the compounds were determined by the two-fold serial agar dilution method in Mueller-Hinton agar against 32 strains of test organisms in six groups. The sample weights of the test compounds were adjusted according to the purity of each compound, so as to give a more accurate measure of the MIC's.
(G-)III: Ps. aeruginosa (6 strains)

Molecules are shown by their SMILES. Values after ≈ are worked out from the molar mass of the structure shown.

In the case of `CC(C)(O/N=C(\C(=O)NC1C(=O)N2C(C(=O)[O-])=C(C[n+]3ccc4scnc4c3)CS[C@H]12)c1csc(N)n1)C(=O)O` (stereo partly drawn) [Id, 7-[(Z)-2-(2-Aminothiazol-4-yl)-2-(2-carboxyprop-2-oxyimino)-acetamido]-3-{(5-thiazolo[4,5-c]pyridinio)methyl}-3-cephem-4-carboxylate], the MIC in experiment [1] turned out to be 8.8 µg/mL (≈ 14.6 µM); in experiment [2], 0.1 µg/mL (≈ 0.166 µM); in experiment [3], 0.88 µg/mL (≈ 1.46 µM); in [10] it was 1.4 µg/mL (≈ 2.32 µM). Also, the ED50 was 5 mg/kg in experiment [4]; 0.23 mg/kg in experiment [5]; 7.2 mg/kg in [6]; 4.3 mg/kg in experiment [7]; 0.082 mg/kg in experiment [8]; 21 mg/kg in [9].

Consider `CO/N=C(\C(=O)NC1C(=O)N2C(C(=O)[O-])=C(C[n+]3ccc4scnc4c3)CS[C@H]12)c1csc(N)n1` (stereo partly drawn) [Ia, 7-[(Z)-2-(2-Aminothiazol-4-yl)-2-methoxyiminoacetamido]-3-{(5-thiazolo[4,5-c]pyridinio)methyl}-3-cephem-4-carboxylate], for which the MIC in [1] came out at 0.96 µg/mL (≈ 1.81 µM); in experiment [3] it was 0.16 µg/mL (≈ 0.301 µM); in [10] it was 2.6 µg/mL (≈ 4.89 µM). Moreover, the ED50 in experiment [4] was found to be 6.25 mg/kg; in experiment [6], 0.45 mg/kg; in experiment [7] it was 7.2 mg/kg; in [8], 0.012 mg/kg; in [9], 0.75 mg/kg.

For the origin of these results see patent US4500526A, “Cephalosporin derivatives” (Bristol-Myers Company, priority 1983, dated 1985).
